Assay results published in ChEMBL document CHEMBL5331122, “Structure-Activity Relationship Study of Antimicrobial Peptide PE2 Delivered Novel Linear Derivatives with Potential of Eradicating Biofilms and Low Incidence of Drug Resistance” (J Med Chem, 2023).
≈ marks a conversion by molar mass, not a printed value. Calls of active or inactive are those of the source. The rule behind the calls is not given here.

Key:
[1] = system: Escherichia coli; experiment: Antibacterial activity against Escherichia coli ATCC 25922 assessed as fold increase in MIC in presence of ZnCl2; format: functional
[2] = system: Staphylococcus aureus; experiment: Antibacterial activity against Staphylococcus aureus ATCC 25923 assessed as fold increase in MIC in presence of MgCl2; format: functional
[3] = system: Escherichia coli; experiment: Antibacterial activity against Escherichia coli ATCC 25922 assessed as fold increase in MIC in presence of KCl; format: functional
[4] = system: Staphylococcus aureus; experiment: Antibacterial activity against Staphylococcus aureus ATCC 25923 assessed as fold increase in MIC in presence of FeCl3; format: functional
[5] = system: Escherichia coli; experiment: Bactericidal activity against Escherichia coli ATCC 25922 assessed as inhibition of bacterial growth at 2 times MIC measured upto 360 mins by time-kill assay; format: functional, organism-based
[6] = system: Escherichia coli; experiment: Antibiofilm activity against Escherichia coli ATCC 25922 assessed as biofilm eradication at 1 times MIC incubated for 24 hrs; format: functional, organism-based
[7] = system: Escherichia coli; experiment: Antimicrobial activity against Escherichia coli ATCC 25922 assessed as reduction in microbial growth measured for 18 hrs in presence of 512 microg/ml LPS; format: functional, organism-based
[8] = system: Staphylococcus aureus; experiment: Antibacterial activity against Staphylococcus aureus ATCC 25923 assessed as fold increase in MIC in presence of NaCl; format: functional
[9] = system: Staphylococcus aureus; experiment: Antibacterial activity against Staphylococcus aureus ATCC 25923 assessed as fold increase in MIC in presence of KCl; format: functional
[10] = system: Escherichia coli; experiment: Antibacterial activity against Escherichia coli ATCC 25922 in presence of 10% mouse serum measured for 6 hrs; format: functional, organism-based
[11] = system: Staphylococcus aureus; experiment: Induction of membrane morphological changes in Staphylococcus aureus ATCC 25923 assessed as appearance of adherent bacterial cells at 4 times MIC measured at 0.5 to 2 hrs by SEM analysis; format: functional, organism-based; details: time 0.5-2 hrs
[12] = system: Escherichia coli; experiment: Inhibition of biofilm formation in Escherichia coli ATCC 25922 assessed as inhibition of biofilm formation incubated for 24 hrs by crystal violet staining based analysis; format: functional, organism-based
[13] = system: Staphylococcus aureus; experiment: Antibacterial activity against Staphylococcus aureus ATCC 25923 in presence of 10% mouse serum measured for 6 hrs; format: functional, organism-based
[14] = system: Escherichia coli; experiment: Induction of membrane morphological changes in Escherichia coli ATCC 25922 at 4 times MIC measured at 0.5 to 2 hrs by SEM analysis; format: functional, organism-based; details: time 0.5-2 hrs
[15] = system: Escherichia coli; experiment: Antibiofilm activity against Escherichia coli ATCC 25922 assessed as biofilm eradication at 4 times MIC incubated for 24 hrs; format: functional, organism-based
[16] = system: Cell membrane; experiment: Induction of outer membrane permeabilization in Escherichia coli ATCC 25922 assessed as increase in fluorescence intensity at 4 times MIC measured for 12 hrs by NPN uptake assay; format: subcellular
[17] = system: Escherichia coli; experiment: Antibacterial activity against Escherichia coli ATCC 25922 assessed as fold increase in MIC in presence of NaCl; format: functional
[18] = system: Escherichia coli; experiment: Inhibition of biofilm formation in Escherichia coli ATCC 25922 assessed as inhibition of biofilm formation at 1/4 times MIC incubated for 24 hrs by crystal violet staining based analysis; format: functional, organism-based
[19] = system: Cell membrane; experiment: Induction of outer membrane permeabilization in Escherichia coli ATCC 25922 assessed as increase in fluorescence intensity at 1 times MIC measured for 12 hrs by NPN uptake assay; format: subcellular
[20] = system: Staphylococcus aureus; experiment: Induction of drug resistance against Staphylococcus aureus ATCC 25923 measured upto 15 passages by sequential passaging method; format: functional
[21] = system: Escherichia coli; experiment: Antimicrobial activity against Escherichia coli ATCC 25922 assessed as reduction in survival bacterial growth in presence of chymotrypsin measured after 6 hrs; format: functional, organism-based
[22] = Cytotoxicity against human HEK293T cells assessed as inhibition of cell growth incubated for 24 hrs by resazurin dye based analysis; format: toxicity, HEK-293T
[23] = system: Staphylococcus aureus; experiment: Antibiofilm activity against Staphylococcus aureus ATCC 25923 assessed as biofilm eradication at 8 times MIC incubated for 24 hrs; format: functional, organism-based
[24] = system: Escherichia coli; experiment: Inhibition of biofilm formation in Escherichia coli ATCC 25922 assessed as inhibition of biofilm formation at 1 to 2 times MIC incubated for 24 hrs by crystal violet staining based analysis; format: functional, organism-based
[25] = system: Cell membrane; experiment: Induction of cell membrane damage in Staphylococcus aureus ATCC 25923 at 2 times MIC measured at 30 mins by propidium iodide staining based flow cytometer assay; format: subcellular
[26] = system: Escherichia coli; experiment: Bactericidal activity against Escherichia coli ATCC 25922 assessed as inhibition of bacterial growth at 1/2 times MIC measured at 180 mins by time-kill assay; format: functional, organism-based
[27] = system: Cell membrane; experiment: Induction of outer membrane permeabilization in Escherichia coli ATCC 25922 assessed as increase in fluorescence intensity at 2 times MIC measured for 12 hrs by NPN uptake assay; format: subcellular
[28] = system: Staphylococcus aureus; experiment: Induction of membrane morphological changes in Staphylococcus aureus ATCC 25923 assessed as appearance of blistered bacterial cells at 4 times MIC measured at 0.5 to 2 hrs by SEM analysis; format: functional, organism-based; details: time 0.5-2 hrs
[29] = system: Pseudomonas aeruginosa; experiment: Antibacterial activity against Pseudomonas aeruginosa ATCC 27853 assessed as bacterial growth inhibition incubated for 18 hrs by broth microdilution method; format: functional
[30] = system: Escherichia coli; experiment: Antibacterial activity against Escherichia coli ATCC 25922 assessed as fold increase in MIC in presence of FeCl3; format: functional
[31] = system: Escherichia coli; experiment: Antimicrobial activity against Escherichia coli ATCC 25922 assessed as reduction in survival bacterial growth in presence of trypsin measured after 6 hrs; format: functional, organism-based
[32] = system: Staphylococcus aureus; experiment: Inhibition of biofilm formation in Staphylococcus aureus ATCC 25923 assessed as inhibition of biofilm formation at 1/4 times MIC incubated for 24 hrs by crystal violet staining based analysis; format: functional, organism-based
[33] = system: Staphylococcus aureus; experiment: Antibacterial activity against Staphylococcus aureus ATCC 25923 assessed as bacterial growth inhibition incubated for 18 hrs by broth microdilution method; format: functional
[34] = system: Escherichia coli; experiment: Antibacterial activity against Escherichia coli ATCC 25922 assessed as fold increase in MIC in presence of MgCl2; format: functional
[35] = system: Staphylococcus aureus; experiment: Inhibition of biofilm formation in Staphylococcus aureus ATCC 25923 assessed as inhibition of biofilm formation at 1 times MIC incubated for 24 hrs by crystal violet staining based analysis; format: functional, organism-based
[36] = system: Staphylococcus aureus; experiment: Antibiofilm activity against Staphylococcus aureus ATCC 25923 assessed as biofilm eradication at 4 times MIC incubated for 24 hrs; format: functional, organism-based
[37] = system: Staphylococcus aureus; experiment: Bactericidal activity against Staphylococcus aureus ATCC 25923 assessed as inhibition of bacterial growth at 1 times MIC measured upto 360 mins by time-kill assay; format: functional, organism-based
[38] = system: Cell membrane; experiment: Induction of cell membrane damage in Staphylococcus aureus ATCC 25923 at 2 times MIC after 0.5 to 2 hrs by propidium iodide staining based flow cytometer assay; format: subcellular; details: time 0.5-2 hrs
[39] = system: Staphylococcus aureus; experiment: Inhibition of biofilm formation in Staphylococcus aureus ATCC 25923 assessed as inhibition of biofilm formation at 2 times MIC incubated for 24 hrs by crystal violet staining based analysis; format: functional, organism-based
[40] = system: Staphylococcus aureus; experiment: Bactericidal activity against Staphylococcus aureus ATCC 25923 assessed as inhibition of bacterial growth at 1/2 times MIC measured upto 360 mins by time-kill assay; format: functional, organism-based
[41] = system: Staphylococcus aureus; experiment: Inhibition of biofilm formation in Staphylococcus aureus ATCC 25923 assessed as inhibition of biofilm formation at 1/2 times MIC incubated for 24 hrs by crystal violet staining based analysis; format: functional, organism-based
[42] = system: Staphylococcus aureus; experiment: Antibiofilm activity against Staphylococcus aureus ATCC 25923 assessed as biofilm eradication at 1 times MIC incubated for 24 hrs; format: functional, organism-based

CCCCCCC(=O)N[C@@H](CCN)C(=O)N[C@H](C(=O)N[C@@H](CCN)C(=O)N[C@H](Cc1ccccc1)C(=O)N[C@@H](CC(C)C)C(=O)N[C@@H](CCN)C(=O)N[C@@H](C(=O)N[C@@H](CC(C)C)C(=O)N[C@@H](Cc1ccc(O)cc1)C(N)=O)C(C)C)[C@@H](C)CC
fold change (FC) [1]: <=2
fold change (FC) [2]: <=2
fold change (FC) [3]: <=2
fold change (FC) [4]: <=2
Activity [5]: Active
Activity [6]: inactive
Activity [7]: inactive
fold change (FC) [8]: <=2
fold change (FC) [9]: <=2
Activity [10]: Active
Activity [11]: Active
inhibition [12]: Dose-Dependent Effect
Activity [13]: Active
Activity [14]: Active
Activity [15]: Active
Activity [16]: Active
fold change (FC) [17]: <=2
inhibition [18]: Active
Activity [19]: Active
Activity [20]: Active
Activity [21]: Active
IC50 at 24 h [22]: 32.5 µg/mL (≈ 27.6 µM)
Activity [23]: Active
inhibition [24]: Active
Activity [25]: inactive
Activity [26]: Active
Activity [27]: Active
Activity [28]: Active
MIC [29]: 4 µg/mL (≈ 3.39 µM)
fold change (FC) [30]: <=2
Activity [31]: Active
inhibition [32]: Active
MIC [33]: 8 µg/mL (≈ 6.79 µM)
fold change (FC) [34]: <=2
inhibition [35]: inactive
Activity [36]: Active
Activity [37]: inactive
Activity [38]: Active
inhibition [39]: Active
Activity [40]: inactive
inhibition [41]: Active
Activity [42]: inactive

CC[C@H](C)[C@@H]1NC(=O)[C@H](CCN)NC(=O)C[C@@H](C(C)C)OC(=O)[C@H]([C@@H](C)O)NC(=O)[C@H](CC(C)C)NC(=O)[C@@H](C(C)C)NC(=O)[C@H](CCN)NC(=O)[C@H](CC(C)C)NC(=O)[C@@H](Cc2ccccc2)NC(=O)[C@H](CCN)NC1=O
fold change (FC) [1]: <=2
fold change (FC) [2]: <=2
fold change (FC) [3]: <=2
fold change (FC) [4]: <=2
Activity [5]: Active
Activity [6]: inactive
Activity [7]: inactive
fold change (FC) [8]: <=2
fold change (FC) [9]: <=2
Activity [10]: Active
Activity [11]: Active
inhibition [12]: Dose-Dependent Effect
Activity [13]: Active
Activity [14]: Active
Activity [15]: Active
Activity [16]: Active
fold change (FC) [17]: <=2
inhibition [18]: inactive
Activity [19]: Active
Activity [20]: Active
Activity [21]: Active
IC50 at 24 h [22]: 29.2 µg/mL (≈ 26.5 µM)
Activity [23]: Active
inhibition [24]: Active
Activity [25]: inactive
Activity [26]: Active
Activity [27]: Active
Activity [28]: Active
MIC [29]: 8 µg/mL (≈ 7.26 µM)
fold change (FC) [30]: <=2
Activity [31]: Active
inhibition [32]: Active
MIC [33]: 8 µg/mL (≈ 7.26 µM)
fold change (FC) [34]: <=2
inhibition [35]: Active
Activity [36]: Active
Activity [37]: inactive
Activity [38]: Active
inhibition [39]: Active
Activity [40]: inactive
inhibition [41]: Active
Activity [42]: inactive
